According to patent US20070015799A1, “Glyoxalase inhibitors” (priority 2003, published 2007):

Assays:
[1] = molecular target: T1, Recombinant human glyoxalase I (Homo sapiens, UniProt Q04760); test: Glyoxalase I inhibition assay (96-well kinetic spectrophotometric assay, 240 nm); type: biochemical; conditions: for inhibition at 20 µM: 20 μM compound, Vmax relative to control without inhibitor, pH 6.6, 25° C.; for IC50: concentration giving 50% of the vehicle control response
T1 construct: made in house; host or cells: E. coli
T1 sequence (Q04760 2-184 limits assumed): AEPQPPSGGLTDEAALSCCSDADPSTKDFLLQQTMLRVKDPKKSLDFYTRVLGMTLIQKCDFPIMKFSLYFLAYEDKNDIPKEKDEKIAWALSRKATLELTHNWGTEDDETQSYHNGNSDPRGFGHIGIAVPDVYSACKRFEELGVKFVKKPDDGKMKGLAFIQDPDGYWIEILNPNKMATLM
Description: Glyoxalase I catalyses the formation of S-D-lactoylglutathione from the hemithioacetal that forms non-enzymatically from methylglyoxal and reduced glutathione (GSH). The standard literature assay is a cuvette-based spectrophotometric method using the product of glyoxalase I, S-D-lactoylglutathione, as the chromophore (240 nm) (Racker, J. Biol. Chem. 190, 685-686 (1951); Principato et al., Biochem International 6, 249-255 (1983)). This literature method was modified for use as a 96-well plate, kinetic assay.
The buffer (0.1M potassium phosphate buffer pH 6.6) and inhibitors are added to appropriate wells of a 96 well plate. Methylglyoxal (prepared in potassium phosphate buffer pH 6.6) and reduced glutathione (prepared in potassium phosphate buffer pH 6.6) are added to appropriate wells. These reagents are incubated for 15 minutes, shaking at room temperature to allow the formation of the hemithioacetal substrate of glyoxalase I. Recombinant human glyoxalase I (expressed in E. coli. and purified by S-hexylglutathione-agarose chromatography as described in Ridderstorm M. and Mannervik B., Biochem J. 314, 463-467 (1996)) is added and the plate is shaken briefly, before being placed in a Spectra Max 190 microplate spectrophotometer (Molecular Devices) at 25° C. Absorbance is monitored at 240 nm, with readings being taken every 30 seconds. The reaction is monitored for 15 minutes and PathCheck® measurements are taken on completion of the assay and the absorbance values normalized to a 1 cm pathlength. The integral software determines the Vmax using the first 20 readings. S-hexylglutathione is used as a positive control in the assays.
Data are expressed as a percentage of the control Vmax, measured in the absence of inhibitor.
Compounds iv, A, ix and E from examples 1 to 4 above respectively were subjected to the above glyoxalase I binding assay at a concentration of 20 μM (20 micromolar). Inhibitory effects are expressed in table 2 as either IC50 values, defined as the concentration, in μM, of the compound that results in 50% of the vehicle control response, or as the percentage of the vehicle control response at the highest concentration of compound tested.

[2] = tested on: HL60 (human promyelocytic leukaemia) cells; test: HL60 cell assay (WST-1 growth inhibition); type: cell-based; conditions: for % proliferation inhibition in HL60s: highest concentration tested (range 20-1.25 μM), mean of six replicates; for IC50: concentration giving 50% of the vehicle control response
Description: HL60 (human promyelocytic leukaemia) cells were seeded (50 μl/well) at a density between 0.25-0.4×10^5/ml in a 96 multi-well plate. Twenty four hours later 50 μl. of the relevant compound dilution made up in culture medium was added to the wells (final concentration range 20-1.25 μM in 0.1% DMSO). After incubating at 37° C. in a 5% CO2 atmosphere for a further 72 hours, assessment of growth inhibitory effects of compounds was measured using a colorimetric assay that is based on the cleavage of the tetrazolium salt WST-1 (Roche) by mitochondrial dehydrogenase in viable cells. WST-1 reagent (10 μl) was added to each well and the plate was agitated for 1 min. After a 3-4 hour incubation at 37° C. in a 5% CO2 incubator the absorbance at 450 nm was read spectrophotometrically, after subtraction of a reference wavelength absorbance, at […].
Compounds iv, ix and E from examples 1, 3 and 4 above respectively were subjected to the above cell assay. Results were the mean of six replicates and were expressed as the percentage of the DMSO vehicle control response. Inhibitory effects are expressed in table 3 in the form of either IC50 values, which was defined as the concentration (μM) of compound that results in 50% of the vehicle control response, or as the % of vehicle control response at the highest concentration of compound tested.

[3] = Homo sapiens, HL-60, 72 hours incubation

Row | Compound | inhibition at 20 µM [1] [%] | also measured
1 | COc1ccc(-c2cc(-c3ccccc3)nc(SC(C(=O)O)c3ccccc3)c2C#N)cc1 (stereo not shown) [Compound 2] | ≥ 30 | –
2 | COc1ccc(-c2cc(-c3cccs3)nc(SC(C(=O)O)c3ccccc3)c2C#N)cc1 (stereo not shown) [Compound 11] | ≥ 30 | –
3 | O=C(O)c1ccccc1CSc1ccc(CN(O)C(=O)c2ccccc2)cc1 [E, 2-{4-[(Benzoyl-hydroxy-amino)-methyl]-phenylsulfanylmethyl}-benzoic acid] | – | IC50 [1]: 1.9 to 2.26 µM; % proliferation inhibition in HL60s ([2]; 72 hours incubation): 4%
4 | N#Cc1c(-c2ccc(Cl)cc2)cc(-c2cccs2)nc1SC(C(=O)O)c1ccccc1 (stereo not shown) [Compound 1] | ≥ 30 | –
5 | CCOC(=O)c1ccccc1SCC(=O)c1ccc(-c2ccccc2)cc1 [ethyl ester of compound 3] | – | IC50 ([2]; 72 hours incubation): 7.5 µM; % proliferation inhibition in HL60s ([2]; 72 hours incubation): 72%
6 | COc1ccc(-c2cc(-c3ccccc3)nc(SCc3ccccc3C(=O)O)c2C#N)cc1 [Compound 4] | ≥ 30 | –
7 | N#Cc1c(-c2cccs2)cc(-c2cccs2)nc1SC(C(=O)O)c1ccccc1 (stereo not shown) [Compound 13] | ≥ 30 | –
8 | O=C(CSc1ccccc1C(=O)O)c1ccc(-c2ccccc2)cc1 [Compound 3, 2-(2-Biphenyl-4-yl-2-oxo-ethylsulfanyl)-benzoic acid] | ≥ 30 | –
9 | O=C(O)C(Sc1ccc(CN(O)C(=O)c2ccccc2)cc1)c1ccccc1 (stereo not shown) [A, {4-[(Benzoyl-hydroxy-amino)-methyl]-phenylsulfanyl)-phenyl-acetic acid] | – | IC50 [1]: 9.7 µM
10 | Cc1ccc(-c2cc(-c3ccccc3)c(C#N)c(SCC(=O)Nc3ccc(C(=O)O)cc3)n2)cc1 [Compound 9] | ≥ 30 | –

Second part, led by results:

Row | inhibition at 20 µM [1] [%] | Compound | also measured
11 | ≥ 30 | N#Cc1c(-c2ccccc2)cc(-c2cccs2)nc1SC(C(=O)O)c1ccccc1 (stereo not shown) [Compound 14] | –
12 | 28.5 | CCOC(=O)C(Sc1ccc(CN(O)C(=O)c2ccccc2)cc1)c1ccccc1 (stereo not shown) [iv, {4-[(Benzoyl-hydroxy-amino)-methyl]-phenylsulfanyl}-phenyl-acetic acid ethyl ester] | IC50 [2, 3]: 8.3 µM; % proliferation inhibition in HL60s ([2]; 72 hours incubation): 80%
13 | 0 | COC(=O)c1ccccc1CSc1ccc(CN(O)C(=O)c2ccccc2)cc1 [Compound ix, 2-{4-[(Benzoyl-hydroxy-amino)-methyl]-phenylsulfanylmethyl}-benzoic acid methyl ester] | IC50 [2, 3]: 15 µM
14 | ≥ 30 | CC(C)C(Sc1nc(-c2ccccc2)cc(-c2ccccc2)c1C#N)C(=O)O (stereo not shown) [Compound 25] | –
